Results taken from publication PMC6095626, “Screening of the Pathogen Box for inhibitors with dual efficacy against Giardia lamblia and Cryptosporidium parvum” (PLoS Neglected Tropical Diseases, 2018).

Legend:
[1] = system: G. lamblia trophozoites (luciferase expressing, WBC6); assay: microbe, parasite or virus in culture; assay type: cell-based, Giardia lamblia; settings: for Giardia (16 uM) Mean % inhibition: initial Pathogen Box screen, single concentration 16 µM, inhibition compared to DMSO wells
Protocol: Trophozoites were harvested by chilling cultures on ice for 30 minutes and plated by adding 150 μL per well at a concentration of 250,000 cells/mL. Metronidazole (Sigma, St. Louis, MO) was used as a control and was serially diluted 1:2 from 40 μM to 0.04 μM and 150 μL was added to the 150 μL of the G. lamblia trophozoites. Plates were covered in plastic low-evaporation lids, sealed in individual anaerobic BD GasPak Bio-Bags (Becton Dickinson, San Jose, CA) and incubated at 37 °C for 24 hours. […] A duplicate plate was concurrently set up and assayed using a MOXI Z Mini Automated Cell Counter Kit (Orflo, Ketchum, ID). Results obtained from the bioluminescence assay and the MOXI counter data were compared to evaluate their correlation to each another. Albendazole (Sigma, St. Louis, MO), an alternative giardiasis therapeutic, was assayed in concentrations from 4 μM to 0.004 μM with only the luciferase expressing G. lamblia cells. […]

[2] = system: C. parvum (UGA1 Nluc expressing strain in HCT-8 cells); assay: microbe, parasite or virus in culture; assay type: cell-based, Cryptosporidium parvum; settings: for Crypto (10 uM) Mean % inhibition: initial Pathogen Box screen, single concentration 10 µM, inhibition compared to DMSO wells
Protocol: Growth inhibition and EC50 determination assays were performed using UGA1 Nluc expressing C. parvum strain in HCT-8 cells (ATCC^©, Manassas, VA) as previously described. HCT-8 cells were inoculated onto 96-well plates and allowed to grow for 48 hours to 90–100% confluence and then treated with single concentration (10 μM) or serially diluted compounds prior to oocyst infection. C. parvum oocysts were incubated for 10 minutes in 10% bleach at room temperature and then washed with DPBS. […] The cell monolayers were lysed for 1 hour before adding Nano-Glo® luciferase reagent (Promega, Madison, WI), and measuring relative luminescence units (RLU) in an EnVision Plate Reader (Perkin Elmer, Waltham, MA). Several parameters, including reproducibility and reliability, were previously evaluated to optimize this assay for low and high-throughput (HTP) screening of small molecule compounds against C. parvum. EC50 values were calculated using Prism 7 software (GraphPad Software, San Diego, CA).
C. parvum screening against the Pathogen Box compounds was performed as previously described starting at a concentration of 10 μM [23].

Compound | Giardia (16 uM) Mean % inhibition [1] | Crypto (10 uM) Mean % inhibition [2] | G. lamblia EC50 ([1]; luciferase expressing G. lamblia trophozoites, 24 hours, D-luciferin bioluminescence read-out) | C. parvum EC50 ([2]; Nluc C. parvum in HCT-8 cells, 48 hours)
Cc1cc(NCC(C)C)c2[nH]nc(-c3ccccc3)c2n1 [MMV021375] | 62% | X* (Mean or standard deviation are negative but not significantly different from the control to be a growth promoter) | – | –
Cc1cc(NCCc2ccccc2)nc(NC(=N)Nc2ccc(Cl)cc2)n1 [MMV021660] | 90% | X* (Mean or standard deviation are negative but not significantly different from the control to be a growth promoter) | – | –
CN1CCC(NCc2cccc(-c3ccc(S(=O)(=O)NCc4ccccc4)cc3)c2)CC1 [MMV022029] | 89% | X* (Mean or standard deviation are negative but not significantly different from the control to be a growth promoter) | – | –
CCN(CC)CCCN1CCN(C(=O)c2cccc(-c3noc(C(F)(F)F)n3)c2)CC1 [MMV022236] | 8% | 38% | – | –
c1ccc2c(c1)CN(CC1CC1)CC1(CCN(Cc3c[nH]c4cnccc34)CC1)O2 [MMV023183] | 72% | X* (Mean or standard deviation are negative but not significantly different from the control to be a growth promoter) | – | –
Cc1nc(-c2cccc(NCc3ccccc3)c2)[nH]c1C [MMV023227] | 58% | 25% | – | –
Nc1nccc2ccc(-c3ccc4nccn4c3)cc12 [MMV023233] | 85% | X* (Mean or standard deviation are negative but not significantly different from the control to be a growth promoter) | – | –
Nc1ncc(-c2cn[nH]c2)cc1-c1nc2cc(Cl)cnc2[nH]1 [MMV023370] | 38% | X* (Mean or standard deviation are negative but not significantly different from the control to be a growth promoter) | – | –
O=C(NC1CCN(c2ccnc3ccccc23)C1)c1cccc(C(F)(F)F)c1 (stereo not shown) [MMV023388] | 86% | X* (Mean or standard deviation are negative but not significantly different from the control to be a growth promoter) | – | –
NS(=O)(=O)c1cccc(-c2ccc3ncc(N4CCOCC4)nc3c2)c1 [MMV023860] | 27% | 89% | – | –
CC(C)(C)c1cc(C(=O)N2CCN(c3nccnc3C#N)CC2)n(Cc2ccccc2)n1 [MMV023949] | 36% | 55% | – | –
O=C(Nc1cccc(-c2ccc(NCCCN3CCCC3)nc2)c1)c1ccccc1 [MMV023953] | 82% | X* (Mean or standard deviation are negative but not significantly different from the control to be a growth promoter) | – | –
c1cncc(NCc2ccc(-c3cc4ccncc4cc3OC3CCNCC3)s2)c1 [MMV023969] | 11% | 25% | – | –
COc1ccc(-c2cnc3ccc(N4CCCC4)nn23)cc1OC [MMV023985] | X* (Mean or standard deviation are negative but not significantly different from the control to be a growth promoter) | 93% | – | –
O=C(Nc1ccccc1)c1ccc(-c2cc3ccncc3cc2OC2CCNCC2)s1 [MMV024035] | 66% | 27% | – | –
NS(=O)(=O)c1cncc(-c2ccc3nccc(-c4cn[nH]c4)c3n2)c1 [MMV024101] | 14% | X* (Mean or standard deviation are negative but not significantly different from the control to be a growth promoter) | – | –
Cc1ccc(S(=O)(=O)n2cc(-c3ccnc(N)c3)c3cc(Br)cnc32)cc1 [MMV024114] | 78% | 86% | not potent | –

Compound | Giardia (16 uM) Mean % inhibition [1] | Crypto (10 uM) Mean % inhibition [2] | G. lamblia EC50 ([1]; luciferase expressing G. lamblia trophozoites, 24 hours, D-luciferin bioluminescence read-out) | C. parvum EC50 ([2]; Nluc C. parvum in HCT-8 cells, 48 hours)
CN(C)CCNC(=O)N1CCCN(c2ncnc3cc(-c4ccccc4)sc23)CC1 [MMV024195] | 31% | 15% | – | –
Cc1ccc2[nH]c(C3CCCNC3)c(-c3ccncc3)c2c1 (stereo not shown) [MMV024311] | 22% | 56% | – | –
O=C(NC1CC1)c1ccc(N2CCC(Cc3ccccc3)CC2)nc1 [MMV024397] | X* (Mean or standard deviation are negative but not significantly different from the control to be a growth promoter) | X* (Mean or standard deviation are negative but not significantly different from the control to be a growth promoter) | – | –
O=C(Nc1cccc(Cl)c1)c1cnc(N2CCN(c3ccncc3)CC2)c(Cl)c1 [MMV024406] | 91% | 91% | – | not potent
CN(C(=O)c1cc2c(-c3cncnc3)cccc2[nH]1)c1ccccc1 [MMV024443] | X* (Mean or standard deviation are negative but not significantly different from the control to be a growth promoter) | 87% | – | –
Cc1cccc(C(=O)Nc2ccnc(N(C)C3CCN(CC(C)C)CC3)c2)c1 [MMV024829] | 89% | X* (Mean or standard deviation are negative but not significantly different from the control to be a growth promoter) | – | –
O=C(Nc1ccc(N2CCNCC2)nc1)c1oc(-c2ccccc2)nc1C(F)(F)F [MMV024937] | 7% | X* (Mean or standard deviation are negative but not significantly different from the control to be a growth promoter) | – | –
CS(=O)(=O)c1cccc(-c2cnc3[nH]cc(-c4ccc(CCC(=O)O)cc4)c3c2)c1 [MMV026020] | 19% | X* (Mean or standard deviation are negative but not significantly different from the control to be a growth promoter) | – | –
Nc1nccc2ccc(Oc3ccncc3)cc12 [MMV026313] | X* (Mean or standard deviation are negative but not significantly different from the control to be a growth promoter) | X* (Mean or standard deviation are negative but not significantly different from the control to be a growth promoter) | – | –
CCn1ncc2c(NC3CCOCC3)c(CNC(=O)c3ccnn3C)c(C)nc21 [MMV026356] | 68% | 31% | – | –
OCc1ccc(-c2cncc(Nc3cccc(Cl)c3)c2)cc1 [MMV026468] | 39% | X* (Mean or standard deviation are negative but not significantly different from the control to be a growth promoter) | – | –
O=C(NCCc1ccccc1)c1cc(-c2cccnc2)cnc1NCC1CC1 [MMV026490] | 12% | X* (Mean or standard deviation are negative but not significantly different from the control to be a growth promoter) | – | –
CC(C)(C)CN1C(=O)C(c2ccccc2)(c2ccccc2)N=C1N [MMV026550] | 35% | X* (Mean or standard deviation are negative but not significantly different from the control to be a growth promoter) | – | –
CC(C)(CN)c1nc(-c2ccc(Cl)c(O)c2)c(-c2ccnc(N)n2)[nH]1 [MMV030734] | 35% | X* (Mean or standard deviation are negative but not significantly different from the control to be a growth promoter) | – | –
CNC(=O)C1Cc2c([nH]c3cc(Cl)ccc23)C2(CCN(CCc3ccccc3)CC2)N1 (stereo not shown) [MMV031011] | 81% | 72% | – | –
FC(F)(F)c1cccc(-c2nc3c(NCc4ccncc4)nccc3[nH]2)c1 [MMV032967] | 26% | 27% | – | –
O=C1COCc2ccc(Br)cc2N1Cc1ccc(C(F)(F)F)cc1 [MMV032995] | 38% | 41% | – | –
